# Measured values published in patent US20250171437A1 (Agios Pharmaceuticals,Inc., priority 2022, published 2025).
# Biological target: T1, human PAH with the R408W mutation (A375 R408W cells) (Homo sapiens, UniProt P00439, R408W)
# T1 construct: expressed in transfected cells
# T1 sequence (P00439 1-452 R408W): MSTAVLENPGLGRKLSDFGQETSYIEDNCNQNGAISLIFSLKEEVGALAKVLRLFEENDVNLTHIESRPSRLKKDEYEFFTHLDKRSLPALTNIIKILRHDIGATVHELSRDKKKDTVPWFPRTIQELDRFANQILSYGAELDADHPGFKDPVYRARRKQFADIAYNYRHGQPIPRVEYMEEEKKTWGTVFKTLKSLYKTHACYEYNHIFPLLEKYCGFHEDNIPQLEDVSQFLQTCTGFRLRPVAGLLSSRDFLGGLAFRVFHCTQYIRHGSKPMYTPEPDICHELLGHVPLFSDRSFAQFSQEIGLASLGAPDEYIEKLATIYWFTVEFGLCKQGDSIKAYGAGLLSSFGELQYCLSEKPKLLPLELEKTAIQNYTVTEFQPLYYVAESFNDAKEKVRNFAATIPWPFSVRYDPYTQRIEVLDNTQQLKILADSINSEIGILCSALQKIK
# Assay: Cell Based Phenylalanine Flux Assay
# Conditions: A375 R408W cells; 24 hrs with compound, then 20 μM sepiapterin and 800 μM 13C9,15N-Phenylalanine for 4 hours; 13C-Tyrosine by LC-MS; average where tested multiple times
# Outline: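 Puromycin-selected A375 line, lentiviral hPAH R408W; cmpd 24 h, 37 °C, 5% CO2, 0.5% DMSO; then 20 μM sepiapterin + 800 μM 13C9,15N-Phe, 4 h; media extracted in 80% MeCN; 13C-Tyr by LC-MS; AC50 from 10-pt curves.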
row,AC50 [nM],SMILES
1,500 to 1000,"Cn1cc(-c2nc(C(F)F)c(C(=O)N3CCc4[nH]cnc4[C@H]3c3nc4cc(F)ccc4o3)o2)cn1 [Example 88, (S)-(4-(difluoromethyl)-2-(1-methyl-1H-pyrazol-4-yl)oxazol-5-yl)(4-(5-fluorobenzo[d]oxazol-2-yl)-6,7-dihydro-1H-imidazo[4,5-c]pyridin-5(4H)-yl)methanone]"
2,≤ 500,"Cc1cc(F)c2oc([C@@H]3c4nc[nH]c4CCN3C(=O)c3ocnc3C(F)F)nc2c1 [Example 501, (S)-(4-(difluoromethyl)oxazol-5-yl)(4-(7-fluoro-5-methylbenzo[d]oxazol-2-yl)-6,7-dihydro-1H-imidazo[4,5-c]pyridin-5(4H)-yl)methanone]"
3,≤ 500,"Cn1ccc(-c2nc(C(F)F)c(C(=O)N3CCc4[nH]cnc4[C@H]3c3nc4cc(F)ccc4o3)o2)n1 [Example 411, (S)-(4-(difluoromethyl)-2-(1-methyl-1H-pyrazol-3-yl)oxazol-5-yl)(4-(5-fluorobenzo[d]oxazol-2-yl)-6,7-dihydro-1H-imidazo[4,5-c]pyridin-5(4H)-yl)methanone]"
4,500 to 1000,"O=C(c1nnc(C2CC2)o1)N1CCc2[nH]cnc2[C@@H]1c1nc2c(F)ccc(F)c2o1 [Example 856, (R)-(5-cyclopropyl-1,3,4-oxadiazol-2-yl)(4-(4,7-difluorobenzo[d]oxazol-2-yl)-6,7-dihydro-1H-imidazo[4,5-c]pyridin-5(4H)-yl)methanone]"
5,1000 to 5000,"COCc1ccc2c(C(=O)N3CCc4[nH]cnc4[C@H]3c3nc4cc(C)ccc4o3)cnn2c1 [Example 877, (S)-(6-(methoxymethyl)pyrazolo[1,5-a]pyridin-3-yl)(4-(5-methylbenzo[d]oxazol-2-yl)-6,7-dihydro-1H-imidazo[4,5-c]pyridin-5(4H)-yl)methanone]"
6,≤ 500,"O=C(c1oc(N2CCC(F)CC2)nc1C(F)F)N1CCc2[nH]cnc2[C@H]1c1nc2cc(F)ccc2o1 [Example 401, (S)-(4-(difluoromethyl)-2-(4-fluoropiperidin-1-yl)oxazol-5-yl)(4-(5-fluorobenzo[d]oxazol-2-yl)-6,7-dihydro-1H-imidazo[4,5-c]pyridin-5(4H)-yl)methanone]"
7,500 to 1000,"Cc1nc([C@H](C)O)oc1C(=O)N1CCc2[nH]cnc2[C@H]1c1nc2cccc(F)c2o1 [Example 247, ((S)-4-(7-fluorobenzo[d]oxazol-2-yl)-6,7-dihydro-1H-imidazo[4,5-c]pyridin-5(4H)-yl)(2-((S)-1-hydroxyethyl)-4-methyloxazol-5-yl)methanone]"
8,1000 to 5000,"FC(F)(F)c1cnc(N2Cc3[nH]cnc3[C@H]2c2nc3ccccc3o2)nc1 [Example 949, (S)-2-(5-(5-(trifluoromethyl)pyrimidin-2-yl)-1,4,5,6-tetrahydropyrrolo[3,4-d]imidazol-4-yl)benzo[d]oxazole]"
9,500 to 1000,"O=C(c1nnc(-c2ccccn2)o1)N1CCc2[nH]cnc2[C@H]1c1nc2cc(F)ccc2o1 [Example 39, (S)-(4-(5-fluorobenzo[d]oxazol-2-yl)-6,7-dihydro-1H-imidazo[4,5-c]pyridin-5(4H)-yl)(5-(pyridin-2-yl)-1,3,4-oxadiazol-2-yl)methanone]"
10,≤ 500,"O=C(c1oc(-c2cccnc2)nc1C(F)F)N1CCc2[nH]cnc2[C@H]1c1nc2cccc(F)c2o1 [Example 590, (S)-(4-(difluoromethyl)-2-(pyridin-3-yl)oxazol-5-yl)(4-(7-fluorobenzo[d]oxazol-2-yl)-6,7-dihydro-1H-imidazo[4,5-c]pyridin-5(4H)-yl)methanone]"
11,1000 to 5000,"Cn1cc(-c2nnc(C(=O)N3CCc4[nH]cnc4[C@@H]3c3nc4cc(F)ccc4o3)o2)cn1 [Example 68, (R)-(4-(5-fluorobenzo[d]oxazol-2-yl)-6,7-dihydro-1H-imidazo[4,5-c]pyridin-5(4H)-yl)(5-(1-methyl-1H-pyrazol-4-yl)-1,3,4-oxadiazol-2-yl)methanone]"
12,≥ 5000,"CN1CCN(c2ccc3c(C(=O)N4CCc5[nH]cnc5[C@@H]4c4nc5cc(F)ccc5o4)cnn3c2)CC1 [Example 66, (R)-(4-(5-fluorobenzo[d]oxazol-2-yl)-6,7-dihydro-1H-imidazo[4,5-c]pyridin-5(4H)-yl)(6-(4-methylpiperazin-1-yl)pyrazolo[1,5-a]pyridin-3-yl)methanone]"
13,1000 to 5000,"Cc1ccc2nc([C@H]3c4nc[nH]c4CCN3C(=O)c3nnc(-c4ccn(C(F)F)n4)o3)oc2c1 [Example 704, (R)-(5-(1-(difluoromethyl)-1H-pyrazol-3-yl)-1,3,4-oxadiazol-2-yl)(4-(6-methylbenzo[d]oxazol-2-yl)-6,7-dihydro-1H-imidazo[4,5-c]pyridin-5(4H)-yl)methanone]"
14,1000 to 5000,"O=C(c1nnc(-c2ccn(C(F)F)n2)o1)N1CCc2[nH]cnc2[C@@H]1c1nc2ccccc2o1 [Example 845, (R)-(4-(benzo[d]oxazol-2-yl)-6,7-dihydro-1H-imidazo[4,5-c]pyridin-5(4H)-yl)(5-(1-(difluoromethyl)-1H-pyrazol-3-yl)-1,3,4-oxadiazol-2-yl)methanone]"
15,1000 to 5000,"Cc1cnn(C)c1-c1nnc(C(=O)N2CCc3[nH]cnc3[C@@H]2c2nc3cc(F)ccc3o2)o1 [Example 120, (R)-(5-(1,4-dimethyl-1H-pyrazol-5-yl)-1,3,4-oxadiazol-2-yl)(4-(5-fluorobenzo[d]oxazol-2-yl)-6,7-dihydro-1H-imidazo[4,5-c]pyridin-5(4H)-yl)methanone]"
16,≤ 500,"O=C(c1ocnc1C(F)(F)F)N1CCc2[nH]cnc2[C@H]1c1nc2cc(Br)ccc2o1 [Example 147, (S)-(4-(5-bromobenzo[d]oxazol-2-yl)-6,7-dihydro-1H-imidazo[4,5-c]pyridin-5(4H)-yl)(4-(trifluoromethyl)oxazol-5-yl)methanone]"
17,≤ 500,"O=C(c1oc(-c2ncccn2)nc1C(F)F)N1CCc2[nH]cnc2[C@@H]1c1nc2cccc(F)c2o1 [Example 668, (R)-(4-(difluoromethyl)-2-(pyrimidin-2-yl)oxazol-5-yl)(4-(7-fluorobenzo[d]oxazol-2-yl)-6,7-dihydro-1H-imidazo[4,5-c]pyridin-5(4H)-yl)methanone]"
18,500 to 1000,"O=C(CCc1ncco1)N1CCc2[nH]cnc2[C@H]1c1nc2c(F)cccc2o1 [Example 887, (S)-1-(4-(4-fluorobenzo[d]oxazol-2-yl)-6,7-dihydro-1H-imidazo[4,5-c]pyridin-5(4H)-yl)-3-(oxazol-2-yl)propan-1-one]"
19,≤ 500,"Cc1ccc2oc([C@@H]3c4nc[nH]c4CCN3C(=O)c3oc(C(C)(C)O)nc3Br)nc2c1 [Example 407, (S)-(4-bromo-2-(2-hydroxypropan-2-yl)oxazol-5-yl)(4-(5-methylbenzo[d]oxazol-2-yl)-6,7-dihydro-1H-imidazo[4,5-c]pyridin-5(4H)-yl)methanone]"
20,≤ 500,"Cc1cc(F)c2oc([C@@H]3c4nc[nH]c4CCN3C(=O)c3oc(C(C)(C)O)nc3C(F)F)nc2c1 [Example 499, (S)-(4-(difluoromethyl)-2-(2-hydroxypropan-2-yl)oxazol-5-yl)(4-(7-fluoro-5-methylbenzo[d]oxazol-2-yl)-6,7-dihydro-1H-imidazo[4,5-c]pyridin-5(4H)-yl)methanone]"

# Same assay, conditions: A375 cells expressing R408W PAH; 24 hrs with compound, then 20 μM sepiapterin and 800 μM 13C9,15N-Phenylalanine for 4 hours; 13C-Tyrosine by LC-MS; average where tested multiple times
row,AC50 [nM],SMILES
1,≥ 5000,Cn1ncc(C(=O)N2CCc3[nH]cnc3C2c2nc3cc(F)ccc3o2)c1C(F)F (stereo not shown)
2,1000 to 5000,Cc1cccc2nc(C3c4nc[nH]c4CCN3C(=O)c3cc(C(C)(C)C)nn3C)oc12 (stereo not shown)
3,≥ 5000,O=C(c1nccs1)N1CCc2[nH]cnc2C1c1nc2ccc(Br)cc2o1 (stereo not shown)
4,≥ 5000,Nc1cc2c(C(=O)N3CCc4[nH]cnc4C3c3nc4cc(F)ccc4o3)cnn2cc1F (stereo not shown)
5,1000 to 5000,Cn1cnnc1C(=O)N1CCc2[nH]cnc2C1c1nc2cc(F)ccc2o1 (stereo not shown)
6,≥ 5000,CN(C)CCOc1ccc2c(C(=O)N3CCc4[nH]cnc4C3c3nc4cc(F)ccc4o3)cnn2c1 (stereo not shown)
7,1000 to 5000,COC(=O)Nc1ccc2c(C(=O)N3CCc4[nH]cnc4C3c3nc4cc(F)ccc4o3)cnn2c1 (stereo not shown)
8,≥ 5000,Nc1ccc2c(C(=O)N3CCc4[nH]cnc4C3c3nc4cc(F)ccc4o3)cnn2c1 (stereo not shown)
9,≥ 5000,Cc1ccc2oc(C3c4nc[nH]c4CCN3C(=O)c3cnn4cc(CCN(C)C)ccc34)nc2c1 (stereo not shown)
10,1000 to 5000,CC(C)(O)c1nc(C(F)F)c(C(=O)N2CC3(CC3)c3[nH]cnc3C2c2nc3cc(F)ccc3o2)o1 (stereo not shown)
11,1000 to 5000,CC(C)(O)c1nc(C(F)F)c(C(=O)N2CCc3[nH]cnc3C2c2nc3cc(C#N)ccc3o2)o1 (stereo not shown)
12,1000 to 5000,CC(C)(O)c1cc(C(=O)N2CCc3[nH]cnc3C2c2nc3c(F)cccc3o2)on1 (stereo not shown)
13,1000 to 5000,Cn1nc(C(C)(C)C)cc1C(=O)N1CCc2[nH]cnc2C1c1nc2cccc(F)c2o1 (stereo not shown)
14,≥ 5000,Cn1nc(C(C)(C)O)cc1C(=O)N1CCc2[nH]cnc2C1c1nc2cc(F)ccc2o1 (stereo not shown)
15,≥ 5000,O=C(C1CN(c2ccccn2)C1)N1CCc2[nH]cnc2C1c1nc2cc(F)ccc2o1 (stereo not shown)
16,1000 to 5000,Cc1ccc2oc(C3c4nc[nH]c4CCN3C(=O)c3nnc(C)o3)nc2c1 (stereo not shown)
17,1000 to 5000,O=C(c1nnc(-c2ncccn2)o1)N1CCc2[nH]cnc2C1c1nc2cc(F)ccc2o1 (stereo not shown)
